Measured values: patent US20110105494A1, “HETEROARYL SUBSTITUTED ARYLINDENOPYRIMIDINES AND THEIR USE AS HIGHLY SELECTIVE ADENOSINE A2A RECEPTOR ANTAGONISTS” (priority 2009, published 2011)

What was measured:
[1] = target: T1, human adenosine A2A receptor (Homo sapiens, UniProt P29274); experiment: Adenosine A2A Receptor Functional Assay (A2AGAL2); format: cell-based; conditions: for IC50: CHO-K1 cells overexpressing human A2A receptor, cAMP inducible beta-galactosidase reporter, antagonist mode vs 15 nM NECA challenge; for A1/A2A: selectivity ratio of A1Gal2 value to A2AGal2 value
T1 construct: expressed in transfected cells; host or cells: CHO-K1 cells with cAMP inducible beta-galactosidase reporter gene
T1 sequence (P29274 whole entry): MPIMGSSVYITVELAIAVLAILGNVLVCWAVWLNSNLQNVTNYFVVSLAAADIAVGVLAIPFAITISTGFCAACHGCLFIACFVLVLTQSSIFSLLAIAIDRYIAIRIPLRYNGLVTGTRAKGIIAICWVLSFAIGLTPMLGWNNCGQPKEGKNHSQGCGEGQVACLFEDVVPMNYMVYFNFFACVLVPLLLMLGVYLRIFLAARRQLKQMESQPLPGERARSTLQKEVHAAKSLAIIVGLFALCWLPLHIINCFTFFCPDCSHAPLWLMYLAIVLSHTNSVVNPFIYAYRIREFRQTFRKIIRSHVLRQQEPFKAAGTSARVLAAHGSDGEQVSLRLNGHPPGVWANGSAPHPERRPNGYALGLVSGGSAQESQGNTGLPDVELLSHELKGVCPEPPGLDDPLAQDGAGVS
Description: Adenosine A2A Receptor Functional Assay (A2AGAL2)
To initiate the functional assay, cryopreserved CHO—K1 cells overexpressing the human adenosine A2A receptor and containing a cAMP inducible beta-galactosidase reporter gene were thawed, centrifuged, DMSO containing media removed, and then seeded with fresh culture media into clear 384-well tissue culture treated plates (BD #353961) at a concentration of 10K cells/well. Prior to assay, these plates were cultured for two days at 37° C., 5% CO2, 90% Rh. On the day of the functional assay, culture media was removed and replaced with 45 μL assay medium (Hams/F-12 Modified (Mediatech #10-080CV) supplemented w/0.1% BSA). Test compounds were diluted and 11 point curves created at a 1000× concentration in 100% DMSO. Immediately after addition of assay media to the cell plates, 50 nL of the appropriate test compound antagonist or agonist control curves were added to cell plates using a Cartesian Hummingbird. Compound curves were allowed to incubate at room temperature on cell plates for approximately 15 minutes before addition of a 15 nM NECA (Sigma E2387) agonist challenge (5 μL volume). A control curve of NECA, a DMSO/Media control, and a single dose of Forskolin (Sigma F3917) were also included on each plate. After additions, cell plates were allowed to incubate at 37° C., 5% CO2, 90% Rh for 5.5-6 hours. After incubation, media were removed, and cell plates were washed 1×50 μL with DPBS w/o Ca & Mg (Mediatech 21-031-CV). Into dry wells, 20 μL of 1× Reporter Lysis Buffer (Promega E3971 (diluted in dH2O from 5× stock)) was added to each well and plates frozen at −20° C. overnight. For β-galactosidase enzyme colorimetric assay, plates were thawed out at room temperature and 20 μL 2× assay buffer (Promega) was added to each well. Color was allowed to develop at 37° C., 5% CO2, 90% Rh for 1-1.5 h or until reasonable signal appeared. The colorimetric reaction was stopped with the addition of 60 μL/well 1M sodium carbonate. Plates were counted at 405 nm on a SpectraMax Microplate Reader (Molecular Devices). Data was analyzed in Microsoft Excel and IC/EC50 curves were fit using a standardized macro.

[2] = target: T2, human adenosine A1 receptor (Homo sapiens, UniProt P30542); experiment: Adenosine A1 Receptor Functional Assay (A1GAL2); format: cell-based; conditions: CHO-K1 cells overexpressing human A1 receptor, cAMP inducible beta-galactosidase reporter; antagonist mode vs 4 nM r-PIA/1 uM Forskolin challenge
T2 construct: expressed in transfected cells; host or cells: CHO-K1 cells with cAMP inducible beta-galactosidase reporter gene
T2 sequence (P30542 1-326): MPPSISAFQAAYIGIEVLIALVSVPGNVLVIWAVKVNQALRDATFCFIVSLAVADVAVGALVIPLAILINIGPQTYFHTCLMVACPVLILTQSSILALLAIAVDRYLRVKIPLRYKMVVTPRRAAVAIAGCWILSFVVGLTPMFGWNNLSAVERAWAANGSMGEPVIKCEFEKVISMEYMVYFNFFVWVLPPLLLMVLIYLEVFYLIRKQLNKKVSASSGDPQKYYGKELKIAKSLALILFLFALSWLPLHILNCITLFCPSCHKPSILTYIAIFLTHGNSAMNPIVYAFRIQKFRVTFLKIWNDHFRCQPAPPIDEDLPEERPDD
Description: Adenosine A1 Receptor Functional Assay (A1GAL2)
To initiate the functional assay, cryopreserved CHO—K1 cells overexpressing the human adenosine A1 receptor and containing a cAMP inducible beta-galactosidase reporter gene were thawed, centrifuged, DMSO containing media removed, and then seeded with fresh culture media into clear 384-well tissue culture treated plates (BD #353961) at a concentration of 10K cells/well. Prior to assay, these plates were cultured for two days at 37° C., 5% CO2, 90% Rh. On the day of the functional assay, culture media was removed and replaced with 45 μL assay medium (Hams/F-12 Modified (Mediatech # 10-080CV) supplemented w/0.1% BSA). Test compounds were diluted and 11 point curves created at a 1000× concentration in 100% DMSO. Immediately after addition of assay media to the cell plates, […] of the appropriate test compound antagonist or agonist control curves were added to cell plates using a Cartesian Hummingbird. Compound curves were allowed to incubate at room temperature on cell plates for approximately 15 minutes before addition of a 4 nM r-PIA (Sigma P4532)/1 uM Forskolin (Sigma F3917) agonist challenge (5 μL volume). A control curve of r-PIA in 1 uM Forskolin, a DMSO/Media control, and a single dose of Forskolin were also included on each plate. After additions, cell plates were allowed to incubate at 37° C., 5% CO2, 90% Rh for 5.5-6 hours. After incubation, media was removed, and cell plates were washed 1×50 μL with DPBS w/o Ca & Mg (Mediatech 21-031-CV). Into dry wells, 20 μL of 1× Reporter Lysis Buffer (Promega E3971 (diluted in dH2O from 5× stock)) was added to each well and plates frozen at −20° C. overnight. For β-galactosidase enzyme colorimetric assay, plates were thawed out at room temperature and 20 μL 2× assay buffer (Promega) was added to each well. Color was allowed to develop at 37° C., 5% CO2, 90% Rh for 1-1.5 h or until reasonable signal appeared. The colorimetric reaction was stopped with the addition of 60 μL/well 1M sodium carbonate. Plates were counted at 405 nm on a SpectraMax Microplate Reader (Molecular Devices). Data was analyzed in Microsoft Excel and IC/EC50 curves were fit using a standardized macro.

IC50 [1] | A1/A2A [1] | IC50 [2] | Structure (SMILES)
0.0079 µM | 73.4177 | 0.58 µM | Nc1nc(-c2ccc(F)cc2)c2c(n1)-c1c(cccc1-c1ccc(N3CCN(CC4CC4)CC3)nc1)C2=O [Example 9, 2-Amino-9-[6-(4-cyclopropylmethyl-piperazin-1-yl)-pyridin-3-yl]-4-(4-fluoro-phenyl)-indeno[1,2-d]pyrimidin-5-one]
0.018 µM | 55.5556 | 1 µM | CC(C)CCN1CCN(c2ccc(-c3cccc4c3-c3nc(N)nc(-c5ccc(F)cc5)c3C4=O)cn2)CC1 [Example 11, 2-Amino-4-(4-fluoro-phenyl)-9-{6-[4-(3-methyl-butyl)-piperazin-1-yl]-pyridin-3-yl}-indeno[1,2-d]pyrimidin-5-one]
0.003 µM | 63.3333 | 0.19 µM | Cc1cc(-c2cccc3c2-c2nc(N)nc(-c4ccccc4)c2C3=O)cnc1N1CCN(C)CC1 [Example 10, 2-Amino-9-[5-methyl-6-(4-methyl-piperazin-1-yl)-pyridin-3-yl]-4-phenyl-indeno [1,2-d]pyrimidin-5-one]
0.0056 µM | 100 | 0.56 µM | Nc1nc(-c2ccccc2)c2c(n1)-c1c(cccc1-c1ccc(N3CCN(Cc4ccccc4)CC3)nc1)C2=O [Example 8, 2-Amino-9-[6-(4-benzyl-piperazin-1-yl)-pyridin-3-yl]-4-phenyl-indeno [1,2-d]pyrimidin-5-one]
0.0042 µM | 53.6847 | 0.225 µM | CCOC(=O)Cn1cc(-c2cccc3c2-c2nc(N)nc(-c4ccc(F)cc4)c2C3=O)cn1 [Example 6, {4-[2-Amino-4-(4-fluoro-phenyl)-5-oxo-5H-indeno[1,2-d]pyrimidin-9-yl]-pyrazol-1-yl}-acetic acid ethyl ester]
0.0127 µM | 160.288 | 2.03 µM | Nc1nc(-c2ccc(F)cc2)c2c(n1)-c1c(cccc1-c1cnn(CCN3CCOCC3)c1)C2=O [Example 2, 2-Amino-4-(4-fluoro-phenyl)-9-[1-(2-morpholin-4-yl-ethyl)-1H-pyrazol-4-yl]-indeno[1,2-d]pyrimidin-5-one]

Second part, the compound before the results:

Structure (SMILES) | IC50 [1] | A1/A2A [1] | IC50 [2]
Cc1c(-c2cccc3c2-c2nc(N)nc(-c4ccccc4)c2C3=O)cnn1-c1ccccc1 [Example 7, 2-Amino-9-(5-methyl-1-phenyl-1H-pyrazol-4-yl)-4-phenyl-indeno [1,2-d]pyrimidin-5-one] | 0.017 µM | 51.1765 | 0.87 µM
Cc1nc(-c2ccccc2)sc1-c1cccc2c1-c1nc(N)nc(-c3ccc(F)cc3)c1C2=O [Example 5, 2-Amino-4-(4-fluoro-phenyl)-9-(4-methyl-2-phenyl-thiazol-5-yl)-indeno[1,2-d]pyrimidin-5-one] | 0.017 µM |  | 0.92 µM
N#Cc1ccc(-c2cccc3c2-c2nc(N)nc(-c4ccccc4)c2C3=O)s1 [Example 4, 5-(2-Amino-5-oxo-4-phenyl-5H-indeno[1,2-d]pyrimidin-9-yl)-thiophene-2-carbonitrile] | 0.0013 µM | 92.3077 | 0.12 µM
Cc1nc(-c2ccccc2)sc1-c1cccc2c1-c1nc(N)nc(-c3ccccc3)c1C2=O [Example 1, 2-Amino-9-(4-methyl-2-phenyl-thiazol-5-yl)-4-phenyl-indeno[1,2-d]pyrimidin-5-one] | 0.0071 µM | 1056.34 | 7.5 µM
Cc1nc(-c2ccc(C(F)(F)F)cc2)sc1-c1cccc2c1-c1nc(N)nc(-c3ccc(F)cc3)c1C2=O [Example 3, 2-Amino-4-(4-fluoro-phenyl)-9-[4-methyl-2-(4-trifluoromethyl-phenyl)-thiazol-5-yl]-indeno[1,2-d]pyrimidin-5-one] | 0.05 µM | 108 | 5.4 µM
